Results as given in paper PMC4554999 (Bioorganic & medicinal chemistry, 2015).
Where two headings read alike, the source gives them in different places.

Key:
[1] = test system: nicotine-induced antinociception; assay: Antagonism of nicotine-induced antinociception, tail-flick test; type: in vivo, mouse; settings: mice
rat α3β4-nAChR = rat α3β4-nAChR (Rattus norvegicus, UniProt P04757+P12392); assay: Electrophysiology; type: cell-based; settings: 100 μM compound; rat receptor in Xenopus oocytes
α4β2*-nAChRs = α4β2*-nAChRs (Rattus norvegicus, UniProt P09483+P12390); assay: biochemical; type: binding
Sequence of α4β2*-nAChRs (P09483 31-630): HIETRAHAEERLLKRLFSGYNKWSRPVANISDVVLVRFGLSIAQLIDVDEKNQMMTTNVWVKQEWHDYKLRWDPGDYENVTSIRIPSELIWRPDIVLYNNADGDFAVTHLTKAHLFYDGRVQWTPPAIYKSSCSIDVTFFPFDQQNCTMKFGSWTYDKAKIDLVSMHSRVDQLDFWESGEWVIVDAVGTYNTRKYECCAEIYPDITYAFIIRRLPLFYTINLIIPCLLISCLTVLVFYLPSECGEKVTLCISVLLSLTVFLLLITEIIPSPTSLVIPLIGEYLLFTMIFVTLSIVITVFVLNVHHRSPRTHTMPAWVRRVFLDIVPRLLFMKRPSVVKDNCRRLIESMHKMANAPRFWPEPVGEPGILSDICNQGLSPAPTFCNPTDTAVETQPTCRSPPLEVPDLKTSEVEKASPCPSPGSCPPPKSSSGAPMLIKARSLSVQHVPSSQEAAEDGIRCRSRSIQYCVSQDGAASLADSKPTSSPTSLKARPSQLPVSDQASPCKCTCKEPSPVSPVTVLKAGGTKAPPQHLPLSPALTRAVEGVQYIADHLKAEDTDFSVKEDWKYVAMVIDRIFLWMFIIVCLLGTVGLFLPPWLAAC
Sequence of α4β2*-nAChRs (P12390 25-500): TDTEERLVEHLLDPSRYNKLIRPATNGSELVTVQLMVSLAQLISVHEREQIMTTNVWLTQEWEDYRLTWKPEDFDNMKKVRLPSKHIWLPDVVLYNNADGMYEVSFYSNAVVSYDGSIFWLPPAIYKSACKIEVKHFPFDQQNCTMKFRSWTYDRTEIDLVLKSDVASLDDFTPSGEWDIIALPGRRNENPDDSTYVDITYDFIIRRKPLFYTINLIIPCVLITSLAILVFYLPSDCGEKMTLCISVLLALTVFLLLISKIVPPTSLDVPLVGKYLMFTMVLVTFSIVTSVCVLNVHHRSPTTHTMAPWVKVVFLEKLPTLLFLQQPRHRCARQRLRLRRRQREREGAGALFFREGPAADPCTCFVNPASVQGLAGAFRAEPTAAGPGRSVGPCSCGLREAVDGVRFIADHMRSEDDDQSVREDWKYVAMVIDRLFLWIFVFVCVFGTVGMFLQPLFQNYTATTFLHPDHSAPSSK

rat α7-nAChR [2] = biological target: T1, rat α7-nAChR (Rattus norvegicus, UniProt Q05941); type: cell-based
T1 sequence (Q05941 23-502): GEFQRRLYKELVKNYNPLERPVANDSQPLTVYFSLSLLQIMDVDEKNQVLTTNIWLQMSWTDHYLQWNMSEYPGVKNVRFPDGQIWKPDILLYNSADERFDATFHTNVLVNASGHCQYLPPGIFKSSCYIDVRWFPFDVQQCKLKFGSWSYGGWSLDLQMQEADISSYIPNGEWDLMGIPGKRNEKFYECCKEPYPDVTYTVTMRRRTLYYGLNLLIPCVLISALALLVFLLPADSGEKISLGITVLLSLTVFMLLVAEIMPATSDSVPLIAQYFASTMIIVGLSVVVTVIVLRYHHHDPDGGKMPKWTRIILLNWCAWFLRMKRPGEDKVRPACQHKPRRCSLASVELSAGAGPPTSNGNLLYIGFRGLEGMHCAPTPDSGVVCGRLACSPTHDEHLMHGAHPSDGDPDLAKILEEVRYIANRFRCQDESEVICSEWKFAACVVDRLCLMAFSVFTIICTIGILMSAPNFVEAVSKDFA

rat α7-nAChR [3] = biological target: T1, rat α7-nAChR; assay: cell-based; settings: read-out: antagonist activity at α7-nAChRs, % inhibition
mice [4] = settings: agonist antinociception, ref [5]; cited from earlier work
mice [5] = settings: agonist antinociception, ref [5]; cited from earlier work; remark: listed apart in the source
mice [6] = settings: ref [5]; cited from earlier work
mice [7] = settings: Table 1, head line above prints AD50 (μg/kg), ref [5]; cited from earlier work

Sequence of rat α3β4-nAChR (P04757 26-499): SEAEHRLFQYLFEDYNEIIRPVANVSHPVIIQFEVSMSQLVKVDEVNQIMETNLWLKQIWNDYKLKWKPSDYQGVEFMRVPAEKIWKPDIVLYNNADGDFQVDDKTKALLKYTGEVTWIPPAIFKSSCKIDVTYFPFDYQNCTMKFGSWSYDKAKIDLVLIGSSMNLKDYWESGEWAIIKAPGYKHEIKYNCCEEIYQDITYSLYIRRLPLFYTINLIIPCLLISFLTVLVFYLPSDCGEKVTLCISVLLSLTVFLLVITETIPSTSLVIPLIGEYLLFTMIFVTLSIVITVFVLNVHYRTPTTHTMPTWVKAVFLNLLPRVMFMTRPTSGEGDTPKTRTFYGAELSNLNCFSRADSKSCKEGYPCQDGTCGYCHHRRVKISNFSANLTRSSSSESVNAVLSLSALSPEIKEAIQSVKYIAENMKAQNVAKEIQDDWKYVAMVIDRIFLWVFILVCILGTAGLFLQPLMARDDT
Sequence of rat α3β4-nAChR (P12392 21-495): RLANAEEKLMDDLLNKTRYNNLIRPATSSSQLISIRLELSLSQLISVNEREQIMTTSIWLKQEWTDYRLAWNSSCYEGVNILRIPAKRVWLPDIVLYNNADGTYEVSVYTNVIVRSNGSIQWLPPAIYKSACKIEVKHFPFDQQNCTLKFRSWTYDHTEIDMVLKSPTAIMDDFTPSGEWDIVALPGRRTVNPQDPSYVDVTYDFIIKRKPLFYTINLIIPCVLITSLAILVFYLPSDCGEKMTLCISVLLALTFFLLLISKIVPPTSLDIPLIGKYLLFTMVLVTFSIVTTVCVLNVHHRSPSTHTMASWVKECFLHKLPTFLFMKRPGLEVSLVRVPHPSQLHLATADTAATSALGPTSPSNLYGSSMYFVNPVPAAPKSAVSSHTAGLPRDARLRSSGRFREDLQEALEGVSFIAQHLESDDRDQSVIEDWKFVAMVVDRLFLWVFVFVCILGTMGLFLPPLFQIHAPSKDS

## c1cc(-c2cncc([C@H]3C[C@H]4CC[C@H]3N4)c2)ccn1 [Compound 5a, 2-exo-[3′-(Pyridin-4-yl)-5′-pyridnyl]-7-azabicyclo[2.2.1]heptane]
[1]
  AD50 Tail-Flick: 39 (4–63) μg/kg

## Clc1cc(-c2cncc([C@H]3C[C@H]4CC[C@H]3N4)c2)ccn1 [Compound 5c, 2-exo-[3′-(2-Chloropyridin-4-yl)-5′-pyridnyl]-7-azabicyclo[2.2.1]heptane]
[1]
  AD50 Tail-Flick: 110 (20–645) μg/kg

## Nc1cc(-c2cncc([C@H]3C[C@H]4CC[C@H]3N4)c2)ccn1 [Compound 5d, 2-exo-[3′-(2-Aminopyridin-4-yl)-5′-pyridnyl]-7-azabicyclo[2.2.1]heptane]
[1]
  AD50 Tail-Flick: 1 (0.13–1.4) μg/kg
Rat α3β4-nAChR
  Agonist Activity (% of max ACh at 100 μM) α3β4: little or no agonist activity

## COc1cc(-c2cncc([C@H]3C[C@H]4CC[C@H]3N4)c2)ccn1 [Compound 5e, 2-exo-[3′-(2-Methoxypyridin-4-yl)-5′-pyridnyl]-7-azabicyclo[2.2.1]heptane]
[1]
  AD50 Tail-Flick: 0.3 (0.04–20) μg/kg

## c1cncc(-c2cncc([C@H]3C[C@H]4CC[C@H]3N4)c2)c1 [Compound 6a, 2-exo-[3′-(Pyridin-3″-yl)-5′-pyridnyl]-7-azabicyclo[2.2.1]heptane]
α4β2*-nAChRs
  Ki: 0.12 nM
[1]
  AD50 Tail-Flick: 0.68 (0.11–4) μg/kg

## Fc1ccc(-c2cncc([C@H]3C[C@H]4CC[C@H]3N4)c2)cn1 [Compound 6b, 2-exo-[3′-(2″-Fluoropyridin-5″-yl)-5′-pyridnyl]-7-azabicyclo[2.2.1]heptane]
Rat α7-nAChR [2]
  Agonist Activity (% of max ACh at 100 μM) α7: little or no agonist activity

## Clc1ccc(-c2cncc([C@H]3C[C@H]4CC[C@H]3N4)c2)cn1 [Compound 6c, 2-exo-[3′-(2″-Chloropyridin-5″-yl)-5′-pyridnyl]-7-azabicyclo[2.2.1]heptane]
[1]
  AD50 Tail-Flick: 0.5 (0.05–4.7) μg/kg

## Nc1ccc(-c2cncc([C@H]3C[C@H]4CC[C@H]3N4)c2)cn1 [Compound 6d, 2-exo-[3′-(2″-Aminopyridin-5″-yl)-5′-pyridnyl]-7-azabicyclo[2.2.1]heptane]
[1]
  AD50 Tail-Flick: 1.5 (0.5–4.1) μg/kg
Rat α3β4-nAChR
  Agonist Activity (% of max ACh at 100 μM) α3β4: little or no agonist activity

## COc1ccc(-c2cncc([C@H]3C[C@H]4CC[C@H]3N4)c2)cn1 [Compound 6e, 2-exo-[3′-(2″-Methoxypyridin-5″-yl)-5′-pyridnyl]-7-azabicyclo[2.2.1]heptane]
[1]
  AD50 Tail-Flick: 0.5 (0.05–4.7) μg/kg
Rat α7-nAChR [2]; 100 μM compound, rat receptor in Xenopus oocytes
  Agonist Activity (% of max ACh at 100 μM) α7: little or no agonist activity
Rat α7-nAChR [3]
  inhibition at 100 µM: > 80%

## CN1CCC[C@H]1c1cccnc1 [nicotine]
Mice [4]
  ED50 Tail-Flick: 1.3 (0.5–1.8) mg/kg
Mice [5]
  ED50 Hot-Plate: 0.65 (0.25–0.85) mg/kg
Mice [6]
  ED50 Hypothermia: 1.0 (0.6–2.1) mg/kg
Mice [7]
  ED50 Spontaneous Activity: 0.5 (0.15–0.78) μg/kg
